Experimental data published in patent US20130122147A1, “METHODS FOR ENHANCING THE PALATABILITY OF COMESTIBLE COMPOSITIONS” (priority 2010, published 2013).

System: dogs
Assay: Two-bowl choice palatability test of pet foods
Assay type: in vivo
Procedure: Palatability testing followed the industry standard protocol for assessing preference, i.e., the two-bowl choice test. The dogs were tested individually inside their kennels. The panels consisted of a mix of breeds, distributed as equally as possible. The dogs were at least 12 months of age and the sex distribution was as equal as possible within panels. A choice of two bowls each with the same amount food, the test and the control diets, was offered simultaneously. The maximum length of the time the products were offered to the dogs was 20 minutes. Water was available at all times via an automatic water system. Bowl assignment for the foods was always counterbalanced.
At the end of a test, food consumption for each pet food for each dog was determined by subtracting the amount of food remaining in the bowls from what was initially offered to the dogs. A dog's preference was determined based on which food was most consumed.
The experiment was repeated twice.

For `CCCCCCCC/C=C\CCCCCCCC(=O)NCCO` [OEA, N-oleoyl-ethanolamide], the “Effect of OEA on palatability of the pet food (result in words)” value (food of Table 9 (0.41% OEA in basal meal) vs control Ex 7) was “enhanced the palatability” and the “Effect of OEA on palatability of the pet foods (result in words)” value (foods of Table 8 (0.066-0.566% OEA) vs control Ex 1) was “enhanced the palatability”.
